Measured values from patent publication US6355799B1, “Substituted benzene compounds, process for their preparation, and herbicidal and defoliant compositions containing them” (ISK Americas Incorporated, priority 1997, dated 2002).

Legend:
Type in all cases: in vivo
[1] = system: green foxtail (Setaria viridis, SETVI); assay: Pre-emerge test, greenhouse herbicide activity screening; conditions: rated 14 days after application, 0 = no damage, 100 = complete death
Summary of the method: (§1)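 Sandy loam pots; pre-emerge: sown 1 d pre-spray, surface-watered after, then bottom-watered. Post-emerge: sown 8–21 d before, 2–3 leaf stage, + 0.25% v/v NIS, bottom-watered. Acetone, 187 l/ha track spray, 15–1000 g ai/ha. 0–100 injury score, day 14.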

[2] = system: common ragweed (Ambrosia artemisizfolia L., AMBEL); assay: as above; conditions: rated 14 days after application, 0 = no damage, 100 = complete death
Summary of the method: as §1

[3] = system: sicklepod (Cassia obtusifolia, CASOB); assay: as above; conditions: rated 14 days after application, 0 = no damage, 100 = complete death
Summary of the method: as §1

[4] = system: large crabgrass (Digitaria sanguinalis, DIGSA); assay: as above; conditions: rated 14 days after application, 0 = no damage, 100 = complete death
Summary of the method: as §1

[5] = system: johnsongrass (Sorghum halepense, SORHA); assay: as above; conditions: rated 14 days after application, 0 = no damage, 100 = complete death
Summary of the method: as §1

[6] = system: lambsquarters (Chenopodium album, CHEAL); assay: as above; conditions: rated 14 days after application, 0 = no damage, 100 = complete death
Summary of the method: as §1

[7] = system: barnyardgrass (Echinochloa crus-galli, ECHCG); assay: as above; conditions: rated 14 days after application, 0 = no damage, 100 = complete death
Summary of the method: as §1

[8] = system: ivyleaf morningglory (Ipomoea hederacea, IPOHE); assay: as above; conditions: rated 14 days after application, 0 = no damage, 100 = complete death
Summary of the method: as §1

[9] = system: velvetleaf (Abutilon theophrasti, ABUTH); assay: as above; conditions: rated 14 days after application, 0 = no damage, 100 = complete death
Summary of the method: as §1

[10] = system: green foxtail (Setaria viridis, SETVI); assay: Post-emerge test, greenhouse herbicide activity screening; conditions: post-emerge, 14 days after application, rating scale 0-100
Summary of the method: (§2)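 Plants grown in 10 cm pots of sandy loam mix received acetone-dissolved compounds through a moving flat-fan nozzle. Doses ranged from 15 to 1000 g ai/ha. Pre-emerge pots were seeded one day earlier, post-emerge pots 8–21 days earlier. Fourteen days on, each pot was graded 0–100 for damage.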

[11] = system: common ragweed (Ambrosia artemisizfolia L., AMBEL); assay: as above; conditions: post-emerge, 14 days after application, rating scale 0-100
Summary of the method: as §2

[12] = system: sicklepod (Cassia obtusifolia, CASOB); assay: as above; conditions: post-emerge, 14 days after application, rating scale 0-100
Summary of the method: as §2

[13] = system: large crabgrass (Digitaria sanguinalis, DIGSA); assay: as above; conditions: post-emerge, 14 days after application, rating scale 0-100
Summary of the method: as §2

[14] = system: johnsongrass (Sorghum halepense, SORHA); assay: as above; conditions: post-emerge, 14 days after application, rating scale 0-100
Summary of the method: as §2

[15] = system: lambsquarters (Chenopodium album, CHEAL); assay: as above; conditions: post-emerge, 14 days after application, rating scale 0-100
Summary of the method: as §2

[16] = system: barnyardgrass (Echinochloa crus-galli, ECHCG); assay: as above; conditions: post-emerge, 14 days after application, rating scale 0-100
Summary of the method: as §2

[17] = system: ivyleaf morningglory (Ipomoea hederacea, IPOHE); assay: as above; conditions: post-emerge, 14 days after application, rating scale 0-100
Summary of the method: as §2

[18] = system: velvetleaf (Abutilon theophrasti, ABUTH); assay: as above; conditions: post-emerge, 14 days after application, rating scale 0-100
Summary of the method: as §2

[19] = system: redroot pigweed (Amaranthus retroflexus, AMARE); assay: as above; conditions: post-emerge, 14 days after application, rating scale 0-100
Summary of the method: as §2

[20] = system: upland rice (Oryza sp., var. Tebonnet, RICE); assay: Post-emerge test, crop safety; conditions: post-emerge, 14 days after application, rating scale 0-100
Summary of the method: as §1

[21] = system: field corn (Zea mays L., var. Dekalb 535, CORN); assay: Post-emerge test, crop safety; conditions: post-emerge, 14 days after application, rating scale 0-100
Summary of the method: as §1

[22] = system: redroot pigweed (Amaranthus retroflexus, AMARE); assay: Pre-emerge test, greenhouse herbicide activity screening; conditions: rated 14 days after application, 0 = no damage, 100 = complete death
Summary of the method: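 Compounds in acetone were track-sprayed at 187 l/ha, 15–1000 g ai/ha, onto sandy loam pots. Pre-emerge seeds were sown one day before spraying, with surface watering afterwards. Post-emerge plants were at the 2–3 leaf stage and sprayed with 0.25% v/v non-ionic surfactant. Injury was rated 0–100 at 14 days.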

[23] = system: upland rice (Oryza sp., var. Tebonnet, RICE); assay: Pre-emerge test, crop safety; conditions: rated 14 days after application, 0 = no damage, 100 = complete death
Summary of the method: (§3)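 Fourteen days after spraying, crop and weed injury was graded visually from 0, no effect, to 100, every plant dead. Test substances were dissolved in acetone and applied at 15–1000 g ai/ha with a flat-fan nozzle. Application was either pre-emergence, one day after sowing, or post-emergence at the 2–3 leaf stage.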

[24] = system: field corn (Zea mays L., var. Dekalb 535, CORN); assay: Pre-emerge test, crop safety; conditions: rated 14 days after application, 0 = no damage, 100 = complete death
Summary of the method: as §3

COc1ccc(C(=O)Nc2c(OC)c(Cl)cc(F)c2-n2c(=O)cc(C(F)(F)F)n(C)c2=O)cc1 [2-63]
Pre-emerge Herbicidal Activity, phytotoxicity rating (0-100), SETVI ([1]; 63 g ai/ha): 100 | Pre-emerge Herbicidal Activity, phytotoxicity rating (0-100), SETVI ([1]; 250 g ai/ha): 100 | Pre-emerge Herbicidal Activity, phytotoxicity rating (0-100), AMBEL ([2]; 63 g ai/ha): 100 | Pre-emerge Herbicidal Activity, phytotoxicity rating (0-100), AMBEL ([2]; 250 g ai/ha): 100 | Pre-emerge Herbicidal Activity, phytotoxicity rating (0-100), CASOB ([3]; 63 g ai/ha): 100 | Pre-emerge Herbicidal Activity, phytotoxicity rating (0-100), CASOB ([3]; 250 g ai/ha): 100 | Pre-emerge Herbicidal Activity, phytotoxicity rating (0-100), DIGSA ([4]; 63 g ai/ha): 100 | Pre-emerge Herbicidal Activity, phytotoxicity rating (0-100), DIGSA ([4]; 250 g ai/ha): 100 | Pre-emerge Herbicidal Activity, phytotoxicity rating (0-100), SORHA ([5]; 63 g ai/ha): 90 | Pre-emerge Herbicidal Activity, phytotoxicity rating (0-100), SORHA ([5]; 250 g ai/ha): 100 | Pre-emerge Herbicidal Activity, phytotoxicity rating (0-100), CHEAL ([6]; 63 g ai/ha): 100 | Pre-emerge Herbicidal Activity, phytotoxicity rating (0-100), CHEAL ([6]; 250 g ai/ha): 100 | Pre-emerge Herbicidal Activity, phytotoxicity rating (0-100), ECHCG ([7]; 63 g ai/ha): 95 | Pre-emerge Herbicidal Activity, phytotoxicity rating (0-100), ECHCG ([7]; 250 g ai/ha): 100 | Pre-emerge Herbicidal Activity, phytotoxicity rating (0-100), IPOHE ([8]; 63 g ai/ha): 100 | Pre-emerge Herbicidal Activity, phytotoxicity rating (0-100), IPOHE ([8]; 250 g ai/ha): 100 | Pre-emerge Herbicidal Activity, phytotoxicity rating (0-100), ABUTH ([9]; 63 g ai/ha): 100 | Pre-emerge Herbicidal Activity, phytotoxicity rating (0-100), ABUTH ([9]; 250 g ai/ha): 100 | phytotoxicity rating SETVI ([10]; 63 g ai/ha): 50 | phytotoxicity rating SETVI ([10]; 250 g ai/ha): 95 | phytotoxicity rating AMBEL ([11]; 63 g ai/ha): 80 | phytotoxicity rating AMBEL ([11]; 250 g ai/ha): 100 | phytotoxicity rating CASOB ([12]; 63 g ai/ha): 100 | phytotoxicity rating CASOB ([12]; 250 g ai/ha): 100 | phytotoxicity rating DIGSA ([13]; 63 g ai/ha): 0 | phytotoxicity rating DIGSA ([13]; 250 g ai/ha): 70 | phytotoxicity rating SORHA ([14]; 63 g ai/ha): 20 | phytotoxicity rating SORHA ([14]; 250 g ai/ha): 100 | phytotoxicity rating CHEAL ([15]; 63 g ai/ha): 99 | phytotoxicity rating CHEAL ([15]; 250 g ai/ha): 100 | phytotoxicity rating ECHCG ([16]; 63 g ai/ha): 10 | phytotoxicity rating ECHCG ([16]; 250 g ai/ha): 100 | phytotoxicity rating IPOHE ([17]; 63 g ai/ha): 100 | phytotoxicity rating IPOHE ([17]; 250 g ai/ha): 100 | phytotoxicity rating ABUTH ([18]; 63 g ai/ha): 100 | phytotoxicity rating ABUTH ([18]; 250 g ai/ha): 100 | phytotoxicity rating AMARE ([19]; 63 g ai/ha): 100 | phytotoxicity rating AMARE ([19]; 250 g ai/ha): 100 | phytotoxicity rating RICE ([20]; 63 g ai/ha): 70 | phytotoxicity rating RICE ([20]; 250 g ai/ha): 95 | phytotoxicity rating CORN ([21]; 63 g ai/ha): 50 | phytotoxicity rating CORN ([21]; 250 g ai/ha): 95 | Pre-emerge Herbicidal Activity, phytotoxicity rating (0-100), AMARE ([22]; 63 g ai/ha): 100 | Pre-emerge Herbicidal Activity, phytotoxicity rating (0-100), AMARE ([22]; 250 g ai/ha): 100 | Pre-emerge phytotoxicity rating (0-100), crop damage, RICE ([23]; 63 g ai/ha): 95 | Pre-emerge phytotoxicity rating (0-100), crop damage, RICE ([23]; 250 g ai/ha): 100 | Pre-emerge phytotoxicity rating (0-100), crop damage, CORN ([24]; 63 g ai/ha): 60 | Pre-emerge phytotoxicity rating (0-100), crop damage, CORN ([24]; 250 g ai/ha): 100
